Measurements: article PMC9860845, “Synthesis, DFT Studies, Molecular Docking and Biological Activity Evaluation of Thiazole-Sulfonamide Derivatives as Potent Alzheimer’s Inhibitors” (Molecules, 2023)
Where two headings read alike, the source gives them in different places.

Legend:
[1] = biological target: butyrylcholinesterase (BuChE) (Homo sapiens, UniProt P06276); test: biochemical
[2] = biological target: acetylcholinesterase (AChE) (Homo sapiens, UniProt P22303); test: biochemical
[3] = Ellman method, pH 7.7, 37 °C, triplicate, ± SEM, read-out: BuChE IC50
[4] = Ellman method, pH 7.7, 37 °C, triplicate, ± SEM, read-out: AchE IC50

Chain of butyrylcholinesterase (BuChE) (P06276 29-602): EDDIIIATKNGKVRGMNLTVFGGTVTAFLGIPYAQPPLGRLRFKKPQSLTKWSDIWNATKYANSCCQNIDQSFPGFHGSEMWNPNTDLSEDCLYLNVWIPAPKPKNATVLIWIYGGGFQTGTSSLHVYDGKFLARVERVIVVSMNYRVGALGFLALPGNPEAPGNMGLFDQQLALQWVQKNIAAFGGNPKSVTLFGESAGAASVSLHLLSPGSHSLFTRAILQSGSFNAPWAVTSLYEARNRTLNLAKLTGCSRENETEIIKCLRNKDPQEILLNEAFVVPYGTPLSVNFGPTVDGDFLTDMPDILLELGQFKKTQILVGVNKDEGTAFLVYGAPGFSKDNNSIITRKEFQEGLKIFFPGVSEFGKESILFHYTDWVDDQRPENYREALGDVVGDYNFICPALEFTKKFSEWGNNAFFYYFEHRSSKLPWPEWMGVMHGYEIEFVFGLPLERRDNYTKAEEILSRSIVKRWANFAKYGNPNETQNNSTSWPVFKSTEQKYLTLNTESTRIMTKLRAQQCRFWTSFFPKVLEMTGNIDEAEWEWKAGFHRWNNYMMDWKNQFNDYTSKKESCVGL
Chain of acetylcholinesterase (AChE) (P22303 32-614, species assumed): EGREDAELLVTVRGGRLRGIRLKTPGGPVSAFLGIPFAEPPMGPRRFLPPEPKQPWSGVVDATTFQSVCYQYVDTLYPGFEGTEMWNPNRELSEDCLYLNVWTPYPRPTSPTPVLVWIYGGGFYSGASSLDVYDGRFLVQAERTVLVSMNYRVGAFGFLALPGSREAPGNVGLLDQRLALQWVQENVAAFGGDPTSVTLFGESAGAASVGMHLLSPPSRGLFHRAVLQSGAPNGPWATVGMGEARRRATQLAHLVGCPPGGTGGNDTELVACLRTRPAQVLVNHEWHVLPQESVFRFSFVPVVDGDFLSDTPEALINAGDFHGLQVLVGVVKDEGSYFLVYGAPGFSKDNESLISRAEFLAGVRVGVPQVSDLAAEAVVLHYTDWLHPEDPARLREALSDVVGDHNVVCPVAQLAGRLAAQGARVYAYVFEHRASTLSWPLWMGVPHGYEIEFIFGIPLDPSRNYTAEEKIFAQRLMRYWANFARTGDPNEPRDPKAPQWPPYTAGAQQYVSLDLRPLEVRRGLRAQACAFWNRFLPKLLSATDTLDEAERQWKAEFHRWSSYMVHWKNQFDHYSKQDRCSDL

| SMILES | IC50 [1, 3] [nM] | IC50 [2, 4] [nM] | IC50 [1] [nM] | IC50 [2] [nM] |
| --- | --- | --- | --- | --- |
| O=[N+]([O-])c1cccc(-c2csc(NNS(=O)(=O)c3cc(Cl)cc(Cl)c3O)n2)c1 [analog 1, 3,5-Dichlro-2-hydroxy-N′-(4-(3-nitrophenyl)thiazol-2-yl)benzenesulfonohydrazide] | 200 ± 50 | 100 ± 50 | – | – |
| O=[N+]([O-])c1cccc(-c2csc(NNS(=O)(=O)c3ccc(Cl)cc3)n2)c1 [analog 2, 4-Chloro-N′-(4-(3-nitrophenyl)thiazol-2-yl)benzenesulfonohydrazide] | 2700 ± 100 | 1900 ± 100 | – | – |
| O=[N+]([O-])c1cccc(-c2csc(NNS(=O)(=O)c3cccc([N+](=O)[O-])c3)n2)c1 [analog 3, 3-Nitro-N′-(4-(3-nitrophenyl)thiazol-2-yl)benzenesulfonohydrazide] | – | – | 3800 ± 100 | 2900 ± 100 |
| Cc1ccc([N+](=O)[O-])cc1S(=O)(=O)NNc1nc(-c2cccc([N+](=O)[O-])c2)cs1 [analog 4, 2-Methyl-5-nitro-N′-(4-(3-nitrophenyl)thiazol-2-yl)benzenesulfonohydrazide] | – | – | 6100 ± 200 | 3200 ± 100 |
| O=[N+]([O-])c1ccc(S(=O)(=O)NNc2nc(-c3ccccc3)cs2)cc1 [analog 6, 4-Nitro-N′-(4-phenylthiazol-2-yl)benzenesulfonohydrazide] | 14300 ± 300 | 11400 ± 200 | – | – |
| O=S(=O)(NNc1nc(-c2ccc(Cl)cc2)cs1)c1ccc(Cl)cc1 [analog 7, 4-Chloro-N′-(4-(4-chlorophenyl)thiazol-2-yl)benzenesulfonohydrazide] | 4200 ± 100 | 2600 ± 100 | – | – |
| O=S(=O)(NNc1nc(-c2ccc(-c3ccccc3)cc2)cs1)c1ccc(Cl)cc1 [analog 8, N′-(4-([1,1′-biphenyl]-4-yl)thiazol-2-yl)-4-chlorobenzenesulfonohydrazide] | 9200 ± 100 | 7300 ± 100 | – | – |
| O=S(=O)(NNc1nc(-c2ccc(Cl)cc2)cs1)c1cc(Cl)cc(Cl)c1O [analog 9, 3,5-Dichloro-N′-(4-(4-chlorophenyl)thiazol-2-yl)-2-hydroxybenzenesulfonohydrazide] | 700 ± 50 | 400 ± 50 | – | – |
| Cc1ccc([N+](=O)[O-])cc1S(=O)(=O)NNc1nc(-c2ccc(Cl)c(Cl)c2)cs1 [analog 10, N′-(4-(3,4-dichlorophenyl)thiazol-2-yl)-2-methyl-5-nitrobenzenesulfonohydrazide] | 600 ± 50 | 200 ± 50 | – | – |
| Cc1ccc([N+](=O)[O-])cc1S(=O)(=O)NNc1nc(-c2ccc(Cl)cc2)cs1 [analog 11, N′-(4-(4-chlorophenyl)thiazol-2-yl)-2-methyl-5-nitrobenzenesulfonohydrazide] | 4400 ± 100 | 3100 ± 100 | – | – |
| O=[N+]([O-])c1cccc(S(=O)(=O)NNc2nc(-c3ccc(Cl)c(Cl)c3)cs2)c1 [analog 13, N′-(4-(3,4-dichlorophenyl)thiazol-2-yl)-3-nitrobenzenesulfonohydrazide] | 1400 ± 100 | 300 ± 100 | – | – |
| O=[N+]([O-])c1cccc(S(=O)(=O)NNc2nc(-c3ccc(Cl)cc3)cs2)c1 [analog 14, N′-(4-(4-chlorophenyl)thiazol-2-yl)-3-nitrobenzenesulfonohydrazide] | 2700 ± 100 | 1200 ± 100 | – | – |
| O=S(=O)(NNc1nc(-c2ccc(Cl)c(Cl)c2)cs1)c1ccc(Cl)cc1 [analog 15, 4-Chloro-N′-(4-(3,4-dichlorophenyl)thiazol-2-yl)benzenesulfonohydrazide] | 900 ± 100 | 400 ± 100 | – | – |
| Cc1ccc([N+](=O)[O-])cc1S(=O)(=O)NNc1nc(-c2ccc(-c3ccccc3)cc2)cs1 [analog 16, N′-(4-([1,1′-biphenyl]-4-yl)thiazol-2-yl)-2-methyl-5-nitrobenzenesulfonohydrazide] | 300 ± 50 | 300 ± 50 | – | – |
| O=[N+]([O-])c1ccc([N+](=O)[O-])c(S(=O)(=O)NNc2nc(-c3ccc(-c4ccccc4)cc3)cs2)c1 [analog 19, N′-(4-([1,1′-biphenyl]-4-yl)thiazol-2-yl)-2,5-dinitrobenzenesulfonohydrazide] | – | – | 4300 ± 100 | 3100 ± 100 |
| O=[N+]([O-])c1ccc(S(=O)(=O)NNc2nc(-c3cccc([N+](=O)[O-])c3)cs2)cc1 [analog 20, 4-Nitro-N′-(4-(3-nitrophenyl)thiazol-2-yl)benzenesulfonohydrazide] | – | – | 5500 ± 100 | 3500 ± 100 |
| O=[N+]([O-])c1ccc(S(=O)(=O)NNc2nc(-c3ccc(-c4ccccc4)cc3)cs2)cc1 [analog 21, N′-(4-([1,1′-biphenyl]-4-yl)thiazol-2-yl)-4-nitrobenzenesulfonohydrazide] | 5400 ± 100 | 3200 ± 100 | – | – |
